Data on eight compounds can be found in ChEMBL document CHEMBL1649177, “Further identification of CTX-M-2 extended-spectrum beta-lactamase in Pseudomonas aeruginosa” (2009).

For orientation: MIC means the least concentration at which growth counts as inhibited.

Values after ≈ are worked out from the molar mass of the structure shown. Active and inactive are the calls of the source. The rule behind the calls is not given here. Where only a bound is given, the exact number is not on record here.

One test has as its system Pseudomonas aeruginosa. As to the kind of experiment: Antimicrobial activity against extended spectrum beta-lactamase CTX-M-2-producing Pseudomonas aeruginosa isolate P6208 by Etest. It counts as functional.
Take `CO/N=C(\C(=O)N[C@@H]1C(=O)N2C(C(=O)[O-])=C(C[N+]3(C)CCCC3)CS[C@H]12)c1csc(N)n1` [CEFEPIME]: the MIC was more than 256 µg/mL.

Turning to `CO/N=C(\C(=O)N[C@@H]1C(=O)N2C(C(=O)O)=C(COC(C)=O)CS[C@H]12)c1csc(N)n1` [CEFOTAXIME], the MIC was more than 32 µg/mL.

In the case of `CC(C)(O/N=C(\C(=O)N[C@@H]1C(=O)N2C(C(=O)[O-])=C(C[n+]3ccccc3)CS[C@H]12)c1csc(N)n1)C(=O)O` [CEFTAZIDIME], the MIC is 2 µg/mL (≈ 3.66 µM).

Regarding `C[C@@H](O)[C@H]1C(=O)N2C(C(=O)O)=C(SCCNC=N)C[C@H]12` [IMIPENEM ANHYDROUS], it took 1 µg/mL (≈ 3.34 µM) to inhibit growth (MIC).

Another test has as its system Pseudomonas aeruginosa. The test is described as follows: Antimicrobial activity against extended spectrum beta-lactamase CTX-M-2-producing Pseudomonas aeruginosa isolate P6208. It counts as functional, organism-based.
For the compound `NCC[C@H](O)C(=O)N[C@@H]1C[C@H](N)[C@@H](O[C@H]2O[C@H](CN)[C@@H](O)[C@H](O)[C@H]2O)[C@H](O)[C@H]1O[C@H]1O[C@H](CO)[C@@H](O)[C@H](N)[C@H]1O`, the outcome was Active.

As for `NC[C@H]1O[C@H](O[C@H]2[C@H](O)[C@@H](O[C@H]3O[C@H](CO)[C@@H](O)[C@H](N)[C@H]3O)[C@H](N)C[C@@H]2N)[C@H](N)C[C@@H]1O`, the outcome was Active.

Take COLISTIN: the outcome was Active.

In the case of GENTAMICIN, the result was Active.
